Source: patent US6720139B1, “Genes identified as required for proliferation in Escherichia coli” (priority 1999, dated 2004)
In brackets after ≈: the same amount, converted by molar mass. Where two headings read alike, the source gives them in different places. Positions of bridges follow the written chain, without caps; N, C: chain ends. Non-standard residues stand in square brackets, D forms with d. Residues, ends and D or L forms follow the SMILES beside them. *: point of attachment. Ileψ(thiazoline)Cys = CC[C@H](C)[C@H](N)C1=N[C@H](C(=O)*)CS1; dOrn = NCCC[C@@H](N)C(=O)O

How the values were obtained:
[1] = test system: bacterial strain engineered for expression of an antisense against rplL and rplJ (50S ribosomal subunit proteins); experiment: microbe, parasite or virus in culture; type: cell-based, E. coli
Method: A panel of test antibiotics known to act on different pathways is tested side by side with three to four wells being used to evaluate the effect of a test antibiotic on cell growth at each concentration. Equal volumes of test antibiotic and cells are added to the wells of a 384 well microtiter plate and mixed. Cells are prepared as described above using the media selected for assay development supplemented with the antibiotic required to maintain the antisense construct and are diluted 1:100 in identical media immediately prior to addition to the microtiter plate wells. For a control, cells are also added to several wells that contain the solvent used to dissolve the antibiotics but no antibiotic. Cell growth is monitored continuously by incubation at 37° C. in a microtiter plate reader monitoring the OD600 of the wells over an 18-hour period. […] A plot of percent inhibition against log[antibiotic concentration] allows extrapolation of an IC50 value for each antibiotic.
Two fold dilution series of the panel of test antibiotics used above are generated in each of these media. Several antibiotics are tested side by side with three to four wells being used to evaluate the effects of an antibiotic on cell growth at each concentration, in each media. Equal volumes of test antibiotic and cells are added to the wells of a 384 well microtiter plate and mixed. Cells are prepared as described above using the media selected for use in the assay supplemented with the antibiotic required to maintain the antisense construct. […] Immediately prior to addition to the microtiter plate wells, the cultures are adjusted to an appropriate OD600 (typically 0.002) by dilution into warm (37° C.) sterile media supplemented with identical concentrations of the inducer and antibiotic used to maintain the antisense construct. […] Cell growth is monitored continuously by incubation at 37° C. in a microtiter plate reader monitoring the OD600 of the wells over an 18-hour period. […]

[2] = test system: E. coli cells expressing antisense RNA to rplL, rplJ, rplW or to comparison genes (elaD, visC, yohH, atpB/E); experiment: Antibiotic sensitivity of cells expressing antisense RNA (Example 9); type: cell-based; settings: for sensitivity to erythromycin: initial experiments
Text: The effectiveness of the above cell based assay was validated using constructs expressing antisense RNA to E. coli genes rplL, rplJ, and rplW encoding ribosomal proteins L7/L12, L10 and L23 respectively. These proteins are part of the protein synthesis apparatus of the cell and as such are required for proliferation. These constructs were used to test the effect of antisense expression on cell sensitivity to antibiotics known to bind to the ribosome and thereby inhibit protein synthesis. Constructs expressing antisense RNA to several other genes (elaD, visC, yohH, and aptE/B), the products of which are not involved in protein synthesis were used for comparison.
First expression vectors containing antisense constructs to either rplW or to elaD were introduced into separate E. coli cell populations. Vector introduction is a technique well known to those of ordinary skill in the art. The expression vectors of this example contain IPTG inducible promoters that drive the expression of the antisense RNA in the presence of the inducer. However, those skilled in the art will appreciate that other inducible promoters may also be used. Suitable expression vectors are also well known in the art. The E. coli antisense clones encoding ribosomal proteins L7/L12, L10 and L23 were used to test the effect of antisense expression on cell sensitivity to the antibiotics known to bind to these proteins. […]
Cells were pretreated with the selected concentration of IPTG and then used to test the sensitivity of cell populations to tetracycline, erythromycin and other protein synthesis inhibitors. […] Cells were grown to log phase and then diluted into media alone or media containing IPTG at concentrations which give 20% and 50% growth inhibition as determined by IPTG dose response curves. […] The 96 well plates were incubated at 37° C. and the OD600 was read by a plate reader every 5 minutes for up to 15 hours. For each IPTG concentration and the no IPTG control, tetracycline dose response curves were determined when the control (absence of tetracycline) reached 0.1 OD600.

E. coli = experiment: Inhibition of bacterial proliferation after IPTG induction of antisense clones (Example 1); type: cell-based, Escherichia coli; settings: 1 mM IPTG, liquid or solid medium
Method: To study the effects of transcriptional induction in liquid medium, growth curves were carried out by back diluting cultures 1:200 into fresh media with or without 1 mM IPTG and measuring the OD450 every 30 minutes (min). To study the effects of transcriptional induction on solid medium, 10^2, 10^3, 10^4, 10^5, 10^6, 10^7 and 10^8 fold dilutions of overnight cultures were prepared. Aliquots of from 0.5 to 3 μl of these dilutions were spotted on selective agar plates with or without 1 mM IPTG. After overnight incubation, the plates were compared to assess the sensitivity of the clones to IPTG.
Of the numerous clones tested, some clones were identified as, a containing sequence that inhibited E. coli growth after IPTG induction. Accordingly, the gene to which the inserted nucleic acid sequence corresponds, or a gene within the operon containing the inserted nucleic acid, may be required for proliferation in E. coli.

CC[C@H](C)[C@H](N)C1=N[C@H](C(=O)N[C@@H](CC(C)C)C(=O)N[C@H](CCC(=O)O)C(=O)N[C@H](C(=O)N[C@H]2CCCCNC(=O)[C@H](CC(N)=O)NC(=O)[C@@H](CC(=O)O)NC(=O)[C@H](Cc3cnc[nH]3)NC(=O)[C@@H](Cc3ccccc3)NC(=O)[C@H]([C@@H](C)CC)NC(=O)[C@@H](CCCN)NC2=O)[C@@H](C)CC)CS1 [Bacitracin] ({Ileψ(thiazoline)Cys}-L[dE]IK[dOrn]I[dF]H[dD]N; lactam 4-C)
IC50 ([1]; read-out: IC50 (+IPTG)): 4680 µg/mL (≈ 3290 µM) | IC50 ([1]; read-out: IC50 (−IPTG)): 4080 µg/mL (≈ 2870 µM)

CC[C@H]1OC(=O)[C@H](C)[C@@H](O[C@H]2C[C@@](C)(OC)[C@@H](O)[C@H](C)O2)[C@H](C)[C@@H](O[C@@H]2O[C@H](C)C[C@H](N(C)C)[C@H]2O)[C@](C)(O)C[C@@H](C)C(=O)[C@H](C)[C@@H](O)[C@]1(C)O [Erythromycin]
sensitivity to erythromycin ([2]; clones expressing antisense to non-protein synthesis genes elaD, atpB/E and visC): do not | sensitivity to erythromycin ([2]; clones expressing antisense to protein synthesis genes (L7/L12 & L10, L7/L12 alone, L22, L18, rRNA, Elongation Factor G)): increased sensitivity

CCn1cc(C(=O)O)c(=O)c2ccc(C)nc21 [Nalidixic acid]
sensitivity to antibiotics which do not inhibit protein synthesis ([2]; clone expressing antisense to rplL and rplJ): does not show increased sensitivity

CN(C)c1ccc(O)c2c1C[C@H]1C[C@H]3[C@H](N(C)C)C(O)=C(C(N)=O)C(=O)[C@@]3(O)C(O)=C1C2=O [Minocycline]
IC50 ([1]; read-out: IC50 (+IPTG)): 0.0034 µg/mL (≈ 0.00743 µM)

B1: EcXA046: identified clone corresponding to an intergenic sequence, fimE, fimA (nucleic acid)
DNA: TTTGTTGGCTTAATATTCTATTGTTATCTTTATTTATAGATGTTTATATTGCATGAGGTGGTTTTTGGAGAGAAGAATGAGGAAGATGCGTCGAGCCACAGAAACGTTAGCTTTACATATAGCGGAGGTGATGTGAATTTAATTTACAATAGAAATAATTTACATATCAAACAGTTAGATGCTTTTTGTCG
modifications: E. Coli
E. coli growth after IPTG induction of antisense expression (E. coli): reduction in cell growth

B2: EcXA053: identified antisense clone, gene gor (nucleic acid, listed as Escherichia coli)
DNA 1: TGGAGAAAACGGGTGATTGATAAAGCAATCATCGTTCTAGGGGCGTTAATTGCGCTGCTGGAACTGATCCCGCTTTCTGCTTCAAGCTTCTGAACTGGATACGGAAACGTAATNAGGGCTAAAGAAGACACTACTCTTAGCCCTTTAACATTTAACGCATTGTCACGAACTCTTCTGCCGCCGTTGGGTGAATGGCGACGGGTATTGGTCGAAATCTTTTTTGGGTGGCCCCATCTTTAACGCCCACCCGCGAAACCCTGCAACATTTCGTC
DNA 2: TGGAGAAAACGGGTGATTGATAAAGCAATCATCGTTCTAGGGGCGTTAATTGCGCTGCTGGAACTGATCCGCTTTCTGCTTCAGCTTCTGAACTGATAGCGGAAACGTAATTAAGGGCTAAGAGCACACTACTCTTAGCCCTTTAACATTTAACGCATTGTCACGAACTCTTCTGCCGCCGTTGGGTGAATGGCGACGGTATTGTCGAAGTCTTTTTTGGTTGCCCCCATCTTCAGCGCCACCGCGAAGCCCTGCAACATTTCGTC
modifications: E. Coli; misc_feature (1)...(272): n = A,T,C or G
notes: identified antisense clone, gene gor
E. coli growth after IPTG induction of antisense expression (E. coli): reduction in cell growth

B3: EcXA044: identified antisense clone, gene purB (nucleic acid)
DNA: TTAATTATTAAAATAGTGTAACGCGATTATGTGGTTATGGGGGTAAACATTAAATAAACCAGCGGGGAGGGGAGGTAAAGTGAAAAAATAAAAAGCGGATAATCTTAATAAGCAGGCCGGACAGCATCGCCATCCGGCACTGATACGAGGTTTATTTCAGCTCATCAACCATCG
modifications: E. Coli
notes: identified antisense clone, gene purB
E. coli growth after IPTG induction of antisense expression (E. coli): reduction in cell growth

B4: EcXA006: identified antisense clone, gene pta (nucleic acid)
DNA: GCGCATACCCTGCAGCATCGGCCCGATGGAGATCAGGTCGGCAGAACGCTGTACCGCTTTGTAGGTGGTGTTACCGGTGNTCAGATCCGGGAAGATGAACACGGTAGCGCGACCTGCAACCGGAGAGTTCGGCGCTTTGGATTNCGCAACGTCAGCCATTACCGCAGCGTCGTACTGCAGCGGACCGGCGATCATCAGGTCA
modifications: E. Coli; misc_feature (1)...(202): n = A,T,C or G
notes: identified antisense clone, gene pta
E. coli growth after IPTG induction of antisense expression (E. coli): reduction in cell growth
